EC50 data for 50 compounds are collected here from patent US9018200B2, “Substituted piperidinyl compounds useful as GPR119 agonists” (Merck Sharp & Dohme Corp., priority 2011, dated 2015).

For orientation: EC50 means the concentration needed to bring the measured effect to its halfway point. Lower therefore signals an effect from little substance.

The assay deals with T1, human GPR119 (Homo sapiens, UniProt Q8TDV5).
T1 sequence (Q8TDV5 1-308 limits assumed): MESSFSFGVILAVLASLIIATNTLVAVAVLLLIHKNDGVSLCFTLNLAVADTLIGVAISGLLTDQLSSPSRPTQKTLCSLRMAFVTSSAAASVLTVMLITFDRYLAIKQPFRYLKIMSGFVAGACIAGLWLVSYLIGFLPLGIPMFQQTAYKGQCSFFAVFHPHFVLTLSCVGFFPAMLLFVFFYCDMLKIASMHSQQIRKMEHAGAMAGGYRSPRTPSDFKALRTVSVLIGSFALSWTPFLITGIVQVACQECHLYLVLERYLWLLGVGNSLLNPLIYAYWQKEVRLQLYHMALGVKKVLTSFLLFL
Put plainly: Measurement of GPR119 signaling (cAMP assay) in HEK 293 cells stably transfected with human GPR119. Format: cell-based. An excerpt: Measurement of GPR119 Signaling (Cyclic AMP (cAMP) Assay)
Human embryonic kidney (HEK) 293 cell lines stably transfected with human GPR119 were maintained in Dulbecco's Modified Eagle Medium (DMEM) containing fetal bovine serum (FBS), penicillin-streptomycin, HEPES buffer (4-(2-hydroxyethyl)-1-piperazineethane sulfonic acid), and hygromycin. For the cAMP assay, the transfected cells were harvested using a non-enzymatic cell dissociation solution (GIBCO 2672), pelleted and resuspended in stimulation buffer (DMEM, 25 mM HEPES, 0.1% bovine serum albumin (BSA), pH 7.4 in the presence of 100 μM phosphodiesterase inhibitors). The adenylate cyclase assay was constructed following the LANCE™ cAMP Kit (Perkin Elmer, AD0264) instructions.
Briefly, cells with Alexa Fluor® 647-anti cAMP antibody were incubated with 10 point series diluted test article in stimulation buffer with a final concentration of 2.5% DMSO for 45 minutes. The reaction was stopped by incubating with the supplied detection buffer containing the europium chelate of the Eu-SA/Biotin-cAMP tracer for 3 hours. The assay was performed in duplicate in a 384 well plate for duplicate plates and fluorescence was measured at 665 nm. Basal activity was determined using a DMSO control and maximum response was defined as cAMP stimulation produced by an internal agonist control. Standard cAMP concentrations were assayed concurrently for conversion of fluorescence signal to cAMP level. The data was analyzed using 4-parameter curve fit in Microsoft Excel. […]
(cAMP levels reflect the balance of adenylyl cyclase and phosphodiesterase activity.)

Read-outs that look alike come from different tables or passages of the source.

Compound `CS(=O)(=O)c1ccc(OCC[C@@H]2C[C@@H]2C2CCN(CC(F)(F)C(F)(F)F)CC2)nc1` [Example 21] registered an EC50 (table of Examples 5-56) of 0.014 µM. With `CC(C)(C)NC(=O)c1c(F)cc(OCC[C@@H]2C[C@@H]2C2CCN(CC(F)(F)F)CC2)cc1F` [Example 19], where the note is “table of Examples 5-56”, the EC50 came out at 0.0122 µM. Consider `COC(=O)c1c(F)cc(OCC[C@@H]2C[C@@H]2C2CCN(CC(F)(F)F)CC2)cc1F` [Example 1, Methyl 2,6-difluoro-4-(2-{(1S,2R)-2-[1-(2,2,2-trifluoroethyl)piperidin-4-yl]cyclopropyl}ethoxy)benzoate], for which the EC50 was 0.0287 µM. This counts as double-digit nanomolar. In turn, `FC(F)(F)C(F)(F)CN1CCC([C@H]2C[C@H]2CCOc2ccc(-n3cncn3)cc2)CC1` [Example 50] displayed an EC50 (table of Examples 5-56) of 0.0269 µM.

As for `CC(C)(C)NC(=O)c1ccc(OCC[C@@H]2C[C@@H]2C2CCN(CC(F)(F)F)CC2)cc1F` [Example 53], the EC50 (table of Examples 5-56) was found to be 0.0579 µM. In turn, `O=C(NC1CC1)c1ccc(OCC[C@@H]2C[C@@H]2C2CCN(CC(F)(F)F)CC2)cc1F` [Example 22] gave a 50% effective concentration (EC50) (table of Examples 5-56) of 0.0167 µM. `CS(=O)(=O)c1ccc(OCC[C@@H]2C[C@@H]2C2CCN(CC(F)(F)C(F)(F)F)CC2)cc1` [Example 26]: the EC50 (table of Examples 5-56) stood at 0.0236 µM. The EC50 values of the last two compounds are within 1.5-fold of each other. With `CS(=O)(=O)c1c(F)cc(COC[C@@H]2C[C@@H]2C2CCN(CC(F)(F)F)CC2)cc1F` [Example 55], a half-maximal response (table of Examples 5-56) (EC50) required 0.568 µM. Compared with the last compound, the EC50 is about 24-fold higher. Regarding `CCC(F)(F)CN1CCC([C@H]2C[C@H]2CCOc2cc(F)c(C(=O)C3CC3)c(F)c2)CC1` [Example 45], the response (table of Examples 5-56) was half-maximal at 0.00165 µM (EC50). The compound `CS(=O)(=O)c1ccc(OCC[C@@H]2C[C@@H]2C2CCN(CC(F)(F)F)CC2)cc1` [Example 36] had an EC50 (table of Examples 5-56) of 0.176 µM. On the same count and under the same terms, the value for `CCC(F)(F)CN1CCC([C@H]2C[C@H]2CCOc2cc(F)c(C(=O)NC3(C)CC3)c(F)c2)CC1` [Example 7] was 0.0012 µM. For the compound `O=C(NC1CC1)c1c(F)cc(OCC[C@@H]2C[C@@H]2C2CCN(CC(F)(F)F)CC2)cc1F` [Example 3, N-Cyclopropyl-2,6-difluoro-4-(2-{(1S,2R)-2-[1-(2,2,2-trifluoroethyl)piperidin-4-yl]cyclopropyl}ethoxy)benzamide], the EC50 worked out at 0.00528 µM. Compound `O=C(NC1CC1(F)F)c1c(F)cc(OCC[C@@H]2C[C@@H]2C2CCN(CC(F)(F)F)CC2)cc1F` (some centres unmarked) [Example 18] had an EC50 (table of Examples 5-56) of 0.00587 µM. The compound `CCC(F)(F)CN1CCC([C@H]2C[C@H]2CCOc2ccc(C(=O)NC3CC3)c(F)c2)CC1` [Example 16] came in with an EC50 (table of Examples 5-56) of 0.00534 µM.

As for `CS(=O)(=O)c1ccc(OCC[C@@H]2C[C@@H]2C2CCN(CC(F)(F)F)CC2)cc1` [Example 4, 4-[(1R,2S)-2-{2-[4-(Methylsulfonyl)phenoxy]ethyl}cyclopropyl]-1-(2,2,2-trifluoroethyl)piperidine], it took 0.176 µM to reach a half-maximal effect (EC50). For `O=C(NC1CC(F)(F)C1)c1c(F)cc(OCC[C@@H]2C[C@@H]2C2CCN(CC(F)(F)F)CC2)cc1F` [Example 24], the EC50 (table of Examples 5-56) came out at 0.0203 µM. That is a double-digit nanomolar value.

The compound `O=C(NCc1cnoc1)c1ccc(OCC[C@@H]2C[C@@H]2C2CCN(CC(F)(F)C(F)(F)F)CC2)cc1F` [Example 12] had an EC50 (table of Examples 5-56) of 0.00369 µM. Against the preceding compound, the EC50 is about 5.5-fold lower. In the case of `CCC(F)(F)CN1CCC([C@H]2C[C@H]2CCOc2cc(F)c(C(=O)NC3CC3)c(F)c2)CC1` [Example 5], the response (table of Examples 5-56) was half-maximal at 0.00043 µM (EC50). The same measure, in the same setting: the value for `O=C(NCCO)c1ccc(OCC[C@@H]2C[C@@H]2C2CCN(CC(F)(F)C(F)(F)F)CC2)cc1F` [Example 17] was 0.00538 µM; that for `O=C(NC1CC1)c1ccc(OCC[C@@H]2C[C@@H]2C2CCN(CC(F)(F)C(F)F)CC2)cc1F` [Example 11] was 0.00316 µM; that for `CCC(F)(F)CN1CCC([C@H]2C[C@H]2CCOc2ccc(S(C)(=O)=O)c(F)c2)CC1` [Example 25] was 0.0225 µM. Under “table of Examples 5-56”, `O=C(NCC1CCCO1)c1ccc(OCC[C@@H]2C[C@@H]2C2CCN(CC(F)(F)C(F)(F)F)CC2)cc1F` (some centres unmarked) [Example 8] returned an EC50 of 0.0016 µM.

For the compound `CC(=O)c1ccc(OCC[C@@H]2C[C@@H]2C2CCN(CC(F)(F)C(F)(F)F)CC2)cc1F` [Example 44], the 50% effective concentration (EC50) (table of Examples 5-56) came to 0.0516 µM. Where the note is “table of Examples 5-56”, `O=C(NC1CC1)c1ccc(OCC[C@@H]2C[C@@H]2C2CCN(CCC(F)(F)F)CC2)cc1F` [Example 41] registered an EC50 of 0.0593 µM. Compound `O=C(c1ccc(OCC[C@@H]2C[C@@H]2C2CCN(CC(F)(F)F)CC2)cc1F)N1CCC(O)C1` (some centres unmarked) [Example 38] gave an EC50 (table of Examples 5-56) of 0.257 µM. This EC50 is about 4.3-fold higher than that of the compound before. For the setting “table of Examples 5-56”, `Cc1cc(OCC[C@@H]2C[C@@H]2C2CCN(CC(F)(F)F)CC2)cc(C#N)n1` [Example 37] displayed an EC50 of 0.199 µM. Where the note is “table of Examples 5-56”, `Cc1nnc(-c2ccc(OCC[C@@H]3C[C@@H]3C3CCN(CC(F)(F)C(F)(F)F)CC3)cc2F)o1` [Example 46] displayed an EC50 of 0.00731 µM. Against the preceding compound, the EC50 is about 27-fold lower. Same read-out and setting: the figure for `CC(C)(CO)NC(=O)c1ccc(OCC[C@@H]2C[C@@H]2C2CCN(CC(F)(F)C(F)(F)F)CC2)cc1F` [Example 9] is 0.00234 µM; for `Cc1nc(-c2ccc(OCC[C@@H]3C[C@@H]3C3CCN(CC(F)(F)C(F)(F)F)CC3)cc2)no1` [Example 52] it is 0.0408 µM.

As to `O=C(c1c(F)cc(OCC[C@@H]2C[C@@H]2C2CCN(CC(F)(F)F)CC2)cc1F)N1CC(F)(F)C1` [Example 31], the EC50 (table of Examples 5-56) is 0.0458 µM. On to `CC(C)(C)NC(=O)c1ccc(OCC[C@@H]2C[C@@H]2C2CCN(CC(F)(F)C(F)(F)F)CC2)cc1F` [Example 13], for which, where the note is “table of Examples 5-56”, a half-maximal response (EC50) required 0.00383 µM. Take `O=C(NC1CC1)c1c(F)cc(OCC[C@@H]2C[C@@H]2C2CCN(CC(F)(F)F)CC2)cc1F` [Example 15]: where the note is “table of Examples 5-56”, the EC50 is 0.00528 µM. The compound `CS(=O)(=O)c1ccc(OCC[C@@H]2C[C@@H]2C2CCN(CC(F)(F)C(F)(F)F)CC2)cc1F` [Example 14] displayed an EC50 (table of Examples 5-56) of 0.00435 µM. This EC50 and that of the compound before are within 1.5-fold of each other. Turning to `O=C(c1ccc(OCC[C@@H]2C[C@@H]2C2CCN(CC(F)(F)C(F)(F)F)CC2)cc1F)N1CCC(O)C1` (some centres unmarked) [Example 20], the EC50 (table of Examples 5-56) was 0.0134 µM. This EC50 is about 3.1-fold higher than that of the compound before. Regarding `O=C(NCC1(O)CC1)c1ccc(OCC[C@@H]2C[C@@H]2C2CCN(CC(F)(F)C(F)(F)F)CC2)cc1F` [Example 10], a half-maximal response (table of Examples 5-56) (EC50) required 0.00302 µM. For `O=C(NC1CC1)c1ccc(OCC[C@@H]2C[C@@H]2C2CCN(CC(F)(F)C(F)(F)F)CC2)cc1F` [Example 6], it took 0.00052 µM to reach a half-maximal effect (table of Examples 5-56) (EC50). This EC50 lies about 5.8-fold lower than the previous one.

As for `CC(C)(CN1CCC([C@H]2C[C@H]2CCOc2ccc(C(=O)NC3CC3)c(F)c2)CC1)C(F)(F)F` [Example 42], for the setting “table of Examples 5-56”, the EC50 stood at 0.00234 µM. On the same count and under the same terms, the figure for `FC(F)(F)C(F)(F)CN1CCC([C@H]2C[C@H]2CCOc2ccc(-n3cnnn3)cc2)CC1` [Example 49] is 0.0242 µM; for `CC(C)(O)C1CCCN(C(=O)c2ccc(OCC[C@@H]3C[C@@H]3C3CCN(CC(F)(F)C(F)(F)F)CC3)cc2F)C1` (some centres unmarked) [Example 23] it is 0.0184 µM; for `CS(=O)(=O)c1ccc(OCC[C@@H]2C[C@@H]2C2CCN(CC(F)(F)F)CC2)nc1` [Example 27] it is 0.0278 µM. On to `C=CCCC(=O)c1ccc(OCC[C@@H]2C[C@@H]2C2CCN(CC(F)(F)C(F)(F)F)CC2)cc1F` [Example 56], for which the EC50 (table of Examples 5-56) was 0.0134 µM. `O=C1Cc2cc(OCC[C@@H]3C[C@@H]3C3CCN(CC(F)(F)C(F)(F)F)CC3)cc(F)c2N1` [Example 43]: the EC50 (table of Examples 5-56) stood at 0.00713 µM. The compound `Cc1nnc(-c2ccc(OCC[C@@H]3C[C@@H]3C3CCN(CC(F)(F)F)CC3)cc2F)o1` [Example 54] gave an EC50 (table of Examples 5-56) of 0.0595 µM. The compound `COCCNC(=O)c1c(F)cc(OCC[C@@H]2C[C@@H]2C2CCN(CC(F)(F)F)CC2)cc1F` [Example 33] came in with an EC50 (table of Examples 5-56) of 0.068 µM. Under “table of Examples 5-56”, `O=C1Cc2cc(OCC[C@@H]3C[C@@H]3C3CCN(CC(F)(F)F)CC3)ccc2N1` [Example 39] gave an EC50 of 0.27 µM.

Under “table of Examples 5-56”, `CCC(F)(F)CN1CCC([C@H]2C[C@H]2CCOc2cc(F)c(S(C)(=O)=O)c(F)c2)CC1` [Example 28] displayed a 50% effective concentration (EC50) of 0.0353 µM. This EC50 lies about 7.6-fold lower than the previous one.

Compound `Cc1nc(C#N)cc(OCC[C@@H]2C[C@@H]2C2CCN(CC(F)(F)F)CC2)n1` [Example 35] came in with an EC50 (table of Examples 5-56) of 0.126 µM.

On to `CC(F)(F)CN1CCC([C@H]2C[C@H]2CCOc2ccc(S(C)(=O)=O)cn2)CC1` [Example 40], for which, under “table of Examples 5-56”, the midpoint of the response, the EC50, lay at 0.776 µM. `COC(=O)c1c(F)cc(OCC[C@@H]2C[C@@H]2C2CCN(CC(F)(F)F)CC2)cc1F` [Example 51]: where the note is “table of Examples 5-56”, the EC50 was determined as 0.0287 µM.

For `O=C(NC1CCOCC1)c1c(F)cc(OCC[C@@H]2C[C@@H]2C2CCN(CC(F)(F)F)CC2)cc1F` [Example 34], where the note is “table of Examples 5-56”, the EC50 came out at 0.0773 µM.
